This passage reports IC50 and inhibition results from US20200031811A1, “SUBSTITUTED MONO- AND POLYAZANAPHTHALENE DERIVATIVES AND THEIR USE” (Basilea Pharmaceutica International AG, priority 2015, published 2020).

As usually defined, the IC50 is the concentration that inhibits the measured activity by half.

Assay [1] deals with T1, MNK1 (Homo sapiens, UniProt Q9BUB5).
T1 construct: purchased Life Technologies or Carna Biosciences PV6023 or 02-145; host or cells: baculovirus infected insect cells
Description: MNK inhibition assay (Z-Lyte kinase assay, Ser/Thr 7 peptide). To be noted: recombinant GST-MNK1, 3 hours at 31° C. It counts as biochemical. Summed up:
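Recombinant GST-MNK1 from baculovirus-infected insect cells, Z-Lyte Ser/Thr 7 peptide, enzyme set for ~30% phosphorylation in buffer-only wells; 3 hours at 31° C. Compounds at 50–10000 nM (potent ones down to 0.5 nM), at least duplicate. IC50 from % substrate phosphorylation versus buffer-only wells, fluorescence read-out.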

In assay [2] the test system is human pancreatic cancer cell line MiaPaCa2 (ATCC CRL-1420). Description: Cell growth assay (CellTiterGlo, 72 hours). The assay is classed as cell-based. As to conditions: for IC50: MIA PaCa-2, MiaPaCa2 cells, 72 hours, read-out: IC50 MiaPaCa. Summed up: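 MiaPaCa2 cells (10^3/well) seeded in supplemented DMEM overnight, then exposed in quadruplicate to compound at 100 down to 0.1 μM for 72 h at 37° C. Growth read by CellTiterGlo luminescence, medium-only background subtracted, normalised to untreated cells; IC50 = concentration reducing growth to 50%.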
On the technique in general: Cellular ATP, detected with luciferase, serves as a proxy for viable cell number.

T1 sequence (Q9BUB5 whole entry): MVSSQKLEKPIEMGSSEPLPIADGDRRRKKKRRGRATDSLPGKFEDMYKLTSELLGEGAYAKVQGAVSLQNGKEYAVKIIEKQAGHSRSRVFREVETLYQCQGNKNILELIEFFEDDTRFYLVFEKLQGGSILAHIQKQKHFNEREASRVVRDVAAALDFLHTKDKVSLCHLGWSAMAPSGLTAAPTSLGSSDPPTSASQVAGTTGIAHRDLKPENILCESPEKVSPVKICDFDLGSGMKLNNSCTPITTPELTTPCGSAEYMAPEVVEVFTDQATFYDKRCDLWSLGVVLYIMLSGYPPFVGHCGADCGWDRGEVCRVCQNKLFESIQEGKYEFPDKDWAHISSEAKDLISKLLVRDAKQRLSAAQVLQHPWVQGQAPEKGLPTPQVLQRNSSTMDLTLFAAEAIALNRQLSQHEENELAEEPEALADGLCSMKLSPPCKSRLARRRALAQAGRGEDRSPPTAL

As to `Nc1cc(NCc2ccc3nncc(-c4cc5ccccc5o4)c3c2)ccn1` [Example 278, N4-[[4-(Benzofuran-2-yl)cinnolin-6-yl]methyl]pyridine-2,4-diamine], the IC50 in assay [1] stood at 43 nM; in assay [2], 3570 nM.
For `COc1c(CN2CCC(N)CC2)cc2c(-c3cc4ccccc4o3)cncc2c1OC` [Example 279, 1-[[4-(Benzofuran-2-yl)-7,8-dimethoxy-6-isoquinolyl]methyl]piperidin-4-amine], in that order: 116 nM and 5630 nM.
On to `NC1CCN(Cc2cc3c(-c4cc5ccccc5o4)cncc3c(Cl)c2Cl)CC1` [Example 280, 1-[[4-(Benzofuran-2-yl)-7,8-dichloro-6-isoquinolyl]methyl]piperidin-4-amine], for which the IC50 in assay [1] stood at 536 nM; in assay [2] it was 5660 nM.
On to `CCOc1cc(CN2CCC(N)CC2)cc2c(-c3cc4ccccc4o3)cncc12` [Example 281, 1-[[4-(Benzofuran-2-yl)-8-ethoxy-6-isoquinolyl]methyl]piperidin-4-amine], for which the IC50 in assay [1] turned out to be 297 nM; in assay [2], 2810 nM.
Consider `COc1cc2cncc(-c3cc4ccccc4o3)c2cc1CN1CCC(N)CC1` [Example 282, 1-[[4-(Benzofuran-2-yl)-7-methoxy-6-isoquinolyl]methyl]piperidin-4-amine], for which the figures for the IC50 in assay [1] and in assay [2] were 152 nM and 4630 nM, respectively.
`CC(C)Oc1cc(CN2CCC(N)CC2)cc2c(-c3cc4ccccc4o3)cncc12` [Example 283, 1-[[4-(benzofuran-2-yl)-8-isopropoxy-6-isoquinolyl]methyl]piperidin-4-amine]: the IC50 in assay [1] was found to be 750 nM; in assay [2] it was 2550 nM.
For `Nc1ncc(-c2ccc(Cl)cc2)c2cc(CN3CCC(N)CC3)cc(Cl)c12` [Example 284], the IC50 came out at 160 nM in assay [1] and 4230 nM in assay [2].
For `Nc1ncc(-c2ccc(F)c(F)c2)c2cc(CN3CCC(N)CC3)cc(Cl)c12` [Example 285], in that order: 150 nM and 6770 nM.
For `Nc1ncc(-c2ccco2)c2cc(CN3CCC(N)CC3)cc(Cl)c12` [Example 286], in that order: 27 nM and 1640 nM.
As for `Nc1ncc(-c2cccs2)c2cc(CN3CCC(N)CC3)cc(Cl)c12` [Example 287], the IC50 in assay [1] was 142 nM; in assay [2], 4740 nM.
`COc1cc(CN2CCC(N)CC2)cc2c(-c3ccc(Cl)cc3)cncc12` [Example 288]: the IC50 in assay [1] was 241 nM; in assay [2] it was 4610 nM.
For `Nc1ncc(-c2ccco2)c2cc(CN3CCC(N)CC3)ccc12` [Example 289], the figures for the IC50 in assay [1] and in assay [2] were 418 nM and 10300 nM, respectively.
For `Nc1ncc(-c2cccs2)c2cc(CN3CCC(N)CC3)ccc12` [Example 290], in that order: 183 nM and 5210 nM.
Turning to `N[C@@H]1CCC[C@@H](Nc2ccc3cncc(-c4cc5ccccc5o4)c3c2)C1` [Example 291], the values for the IC50 in assay [1] and in assay [2] were 638 nM and 4750 nM, respectively.
With `N[C@@H]1CCC[C@H](Nc2ccc3cncc(-c4cc5ccccc5o4)c3c2)C1` [Example 292], the IC50 in assay [1] is 161 nM; in assay [2], 5090 nM.
Consider `NC1CCCN(Cc2ccc3cncc(-c4cc5ccccc5o4)c3c2)C1` (stereo not drawn) [Example 293], for which the values for the IC50 in assay [1] and in assay [2] were 2080 nM and 14400 nM, respectively.
On to `c1ccc2oc(-c3cncc4ccc(CN5CCCCC5)cc34)cc2c1` [Example 294], for which the IC50 in assay [1] is 1520 nM; in assay [2] it was 35300 nM.
In the case of `COc1cc(CN2CCC(N)CC2)cc2c(-c3ccc(Cl)cc3)cnc(N)c12` [Example 295, 6-[(4-Amino-1-piperidyl)methyl]-4-(4-chlorophenyl)-8-methoxy-isoquinolin-1-amine], the results for the IC50 in assay [1] and in assay [2] were 300 nM and 1680 nM, respectively.
Take `COc1cc(CN2CCC(N)CC2)cc2c(-c3ccc(F)c(F)c3)cnc(N)c12` [Example 296]: the 50% inhibitory concentration (IC50) was determined as 453 nM in assay [1] and 5340 nM in assay [2].
For `COc1cc(CN2CCC(N)CC2)cc2c(-c3ccco3)cnc(N)c12` [Example 297], the IC50 in assay [1] was found to be 290 nM; in assay [2], 1210 nM.
For `COc1cc(CN2CCC(N)CC2)cc2c(-c3cccs3)cnc(N)c12` [Example 298], the results for the IC50 in assay [1] and in assay [2] were 282 nM and 3580 nM, respectively.
`NC1CCN(Cc2ccc3cncc(-c4ccccc4)c3n2)CC1` [Example 299, 1-[(8-Phenyl-1,6-naphthyridin-2-yl)methyl]piperidin-4-amine]: in assay [1], the IC50 came out at 237 nM. In addition, the inhibition at 100 µM in assay [2] (MIA PaCa-2, at 100 μM, read-out: Inhibition of MiaPaCa growth at indicated concentration) came to 85%.
As to `NC1CCN(Cc2ccc3cncc(-c4cc5ccccc5o4)c3n2)CC1` [Example 300, 1-[[8-(Benzofuran-2-yl)-1,6-naphthyridin-2-yl]methyl]piperidin-4-amine], the IC50 in assay [1] is 89 nM; in assay [2] it was 8360 nM.
For the compound `c1ccc2oc(-c3cncc4ccc(CN5CCCCC5)nc34)cc2c1` [Example 301], the values for the IC50 in assay [1] and in assay [2] were 1720 nM and 51700 nM, respectively.
As to `c1ccc2oc(-c3cncc4ccc(CN5CCNCC5)nc34)cc2c1` [Example 302], the 50% inhibitory concentration (IC50) in assay [1] worked out at 142 nM; in assay [2], 18000 nM.
For `N[C@H]1CC[C@H](Nc2ccc3cncc(-c4ccccc4)c3n2)CC1` [Example 303, trans-N4-(8-phenyl-1,6-naphthyridin-2-yl)cyclohexane-1,4-diamine], in that order: 31 nM and 9520 nM.
As for `N[C@H]1CC[C@H](Nc2ccc3cncc(-c4cc5ccccc5o4)c3n2)CC1` [Example 304, trans-N4-[8-(benzofuran-2-yl)-1,6-naphthyridin-2-yl]cyclohexane-1,4-diamine], the values for the IC50 in assay [1] and in assay [2] were 10 nM and 1960 nM, respectively.
For the compound `O=C(c1ccc2cncc(-c3cc4ccccc4o3)c2n1)N1CCNCC1` [Example 305], the results for the IC50 in assay [1] and in assay [2] were 1300 nM and 28000 nM, respectively.
For `N#Cc1cc(CN2CCC(N)CC2)cc2c(-c3cc4ccccc4o3)cncc12` [Example 306, 6-[(4-Amino-1-piperidyl)methyl]-4-(benzofuran-2-yl)isoquinoline-8-carbonitrile], in that order: 179 nM and 9130 nM.
`N#Cc1cc(CN2CCC(N)CC2)cc2c(-c3ccccc3)cncc12` [Example 307]: the IC50 in assay [1] is 256 nM; in assay [2] it was 47700 nM.
For `N[C@H]1CC[C@H](Nc2cc(Cl)c3cncc(-c4ccccc4)c3c2)CC1` [Example 308], in that order: 28 nM and 2340 nM.
Take `N[C@H]1CC[C@H](Oc2ccc3cncc(-c4ccccc4)c3c2)CC1` [Example 309]: the figures for the IC50 in assay [1] and in assay [2] were 61 nM and 4430 nM, respectively.
For `N[C@H]1CC[C@H](Oc2cc(Cl)c3cncc(-c4cc5ccccc5o4)c3c2)CC1` [Example 310], the values for the IC50 in assay [1] and in assay [2] were 135 nM and 2370 nM, respectively.
`N[C@H]1CC[C@H](Oc2cc(Cl)c3cncc(-c4ccccc4)c3c2)CC1` [Example 311]: the values for the IC50 in assay [1] and in assay [2] were 105 nM and 5760 nM, respectively.
Turning to `Nc1ncc(-c2ccccc2)c2cc(N[C@H]3CC[C@H](N)CC3)cc(Cl)c12` [Example 312, Trans-N6-(4-aminocyclohexyl)-8-chloro-4-phenyl-isoquinoline-1,6-diamine], the IC50 in assay [1] was 171 nM; in assay [2], 1300 nM.
For `Nc1ncc(-c2cc3ccccc3o2)c2cc(N[C@H]3CC[C@H](N)CC3)cc(Cl)c12` [Example 313], in that order: 282 nM and 2060 nM.
For `COc1cc(O[C@H]2CC[C@H](N)CC2)cc2c(-c3cc4ccccc4o3)cncc12` [Example 314, Trans-4-[[4-(Benzofuran-2-yl)-8-methoxy-6-isoquinolyl]oxy]cyclohexanamine], in that order: 302 nM and 4740 nM.
Turning to `COc1cc(N[C@H]2CC[C@H](N)CC2)cc2c(-c3ccccc3)cncc12` [Example 315], the values for the IC50 in assay [1] and in assay [2] were 87 nM and 2550 nM, respectively.
On to `COc1cc(O[C@H]2CC[C@H](N)CC2)cc2c(-c3ccccc3)cncc12` [Example 316], for which the IC50 was 55 nM in assay [1] and 5570 nM in assay [2].
As for `Nc1ncc(-c2ccccc2)c2cc(N[C@H]3CC[C@H](N)CC3)ccc12` [Example 317, trans-N6-(4-aminocyclohexyl)-4-phenyl-isoquinoline-1,6-diamine], the IC50 came to 312 nM in assay [1] and 4580 nM in assay [2].
For the compound `Nc1ncc(-c2cc3ccccc3o2)c2cc(O[C@H]3CC[C@H](N)CC3)cc(Cl)c12` [Example 318, trans-6-(4-Aminocyclohexoxy)-4-(benzofuran-2-yl)-8-chloro-isoquinolin-1-amine], the concentration for half-maximal inhibition (IC50) in assay [1] turned out to be 296 nM; in assay [2], 3800 nM.
With `Nc1ncc(-c2ccccc2)c2cc(O[C@H]3CC[C@H](N)CC3)cc(Cl)c12` [Example 319], the figures for the IC50 in assay [1] and in assay [2] were 38 nM and 2850 nM, respectively.
For `COc1cc(O[C@H]2CC[C@H](N)CC2)cc2c(-c3ccccc3)cnc(N)c12` [Example 321], in that order: 175 nM and 1310 nM.
As to `Nc1ncc(-c2ccccc2)c2cc(O[C@H]3CC[C@H](N)CC3)ccc12` [Example 322], the IC50 in assay [1] was determined as 153 nM; in assay [2], 2170 nM.
For `COc1cc(O[C@H]2CC[C@H](N)CC2)cc2c(-c3cc4ccccc4o3)cnc(N)c12` [Example 323, trans-6-(4-Aminocyclohexoxy)-4-(benzofuran-2-yl)-8-methoxy-isoquinolin-1-amine], the IC50 is 211 nM in assay [1] and 3200 nM in assay [2].
